Measured values published in article PMC7002685, “Inhibition of vascular calcification by inositol phosphates derivatized with ethylene glycol oligomers” (Nature Communications, 2020).
Several values for one entry are separate records, joined by “and”; a condition that tells them apart may be missing. Equal values may be shown once.

Test system: transformation of CPP1 to CPP2 in pooled human serum
Assay: In vitro serum calcification propensity (T50) screening assay
Assay type: biochemical
Set-up: key to T50: T50 in minutes (time to 50% CPP phase transition)
Conditions: for T50: one value per experiment; for activity/unit mass: mean c350 x mw (Na salt); for concentration upon which a T50 of 350 min is reached (c350), mean: mean of n experiments; for Concentration at T50 = 350 min mean ± s.d. (n) (c350): pooled human serum, 10 mM calcium, 6 mM phosphate, 37 °C; for concentration upon which a T50 of 350 min is reached (c350), single experiment: one value per experiment (lab journal reference E05-E40); for c350: unit not printed in the sentence (equals mg/L column of rebuttal Table 1)
Protocol: The compounds were ranked for calcification inhibition activity using a nanoparticle-based test, developed for risk stratification, which measures the propensity for calcification in patient serum. […] The time, after which 50% of CPP phase transition occurred (T50), was assessed by time-resolved spectrophotometry at 550 nm (Supplementary Fig. 1a).
The screening assay was performed as described previously. In brief, pooled human serum (H4522, Sigma-Aldrich) stored at −20 °C was thawed at 37 °C, centrifuged (10,000 × g, and 4 °C, 30 min) (5427R, Eppendorf, Switzerland), and sterile filtered (0.22 μm filter, Millipore, Merck KGaA) to remove potential cryoprecipitates (cleared human serum). The calcium solution was 40 mM CaCl2 (102382, Merck KGaA) in HBS, pH 7.4 (RT) (100 mM HEPES (H3375, Sigma-Aldrich) and 140 mM NaCl (1734712, Fisher Scientific, Hampton, NH, USA)). […] All salt solutions and buffers were double sterile filtered (0.22 µm) and pre-warmed to 37 °C prior to use. […] The plate was sealed with an adhesive film and the absorption at 550 nm was measured every 3 min with 1 min in-between shaking for a total of 300 cycles at 37 °C using the infinite M200 microplate reader (Tecan, Männedorf, Switzerland). An A550 vs. time graph was generated and T50 (min) (time at half-maximum transition from CPP1 to CPP2) values were derived by sigmoidal curve fit using Prism 8 (nonlinear regression in the log(agonist) vs. response–variable slope (four parameter mode) using the robust fit fitting method, GraphPad Software, San Diego, CA, USA). Activities between compounds were compared by generating a T50 (min) vs. concentration (µM) graph, calculating nonlinear regression and deriving the concentration required to delay T50 to 350 min (c350) using a standard equation for the dose–response curve, Eq. (1), whereby x = [compound], y = time (min), bottom = baseline response, top = maximum response, T50 = [drug] that leads to half-maximum response, and the hill slope is a factor that describes the steepness of the curve.1 y= bottom+top - bottom/1+T50/x^hillslope.

Row | Structure (SMILES) | T50 (concentration 1 μM) | T50 (concentration 3 μM) | T50 (concentration 10 μM) | activity/unit mass [mg/L] | concentration upon which a T50 of 350 min is reached (c350), mean [µM] | Concentration at T50 = 350 min mean ± s.d. (n) (c350) | T50 (concentration 0.3 μM) | concentration upon which a T50 of 350 min is reached (c350), single experiment | further results
1 | O=P1(O)OP(=O)(O)O[C@H]2[C@@H](O1)[C@@H]1OP(=O)(O)OP(=O)(O)O[C@H]1[C@@H]1OP(=O)(O)OP(=O)(O)O[C@@H]21 (racemic) [ITPP, myo-inositol trispyrophosphate] | 193.4 and 250.1 and 242.3 and 298 | 191.467 and 273.733 and 236.7 and 299.7 | 194.6 and 250.333 and 260.467 and 308.2 | 60.60 | > 100 | >100 (4) µM and >60.6 (4) mg/L |  |  | T50 (concentration 30 μM): 200.233 and 253.8 and 260.967; T50 (concentration 50 μM): 203.167; T50 (concentration 100 μM): 274.033 and 292.433
2 | COCCOCCO[C@@H]1[C@@H](OP(=O)(O)O)[C@H](OP(=O)(O)O)[C@@H](OP(=O)(O)O)[C@@H](OP(=O)(O)O)[C@H]1OP(=O)(O)O (racemic) [OEG2-IP5, (±)-6-O-(methoxy-diethyleneglycol)-myo-inositol-1,2,3,4,5-pentakis(phosphate)] | 261.7 and 258.567 and 225.033 | 295.2 and 270.867 and 244.067 | 440.033 and 391.7 and 340.167 | 7.10 | 7.9 | 7.9 ± 2.7 (3) µM and 7.1 ± 2.4 (3) mg/L | 233.1 and 222.8 and 210.3 | 5.5 µM and 7.4 µM and 10.7 µM | Concentration at T50 = 350 min mean ± s.d. (n) (c350) (listed as (±)-4-O-(methoxy-diethyleneglycol)-myo-inositol-1,2,3,5,6-pentakis(phosphate)): 7.9 ± 2.7 µM and 7.1 ± 2.4 mg/L; c350: 7.1 ± 2.4
3 | COCCOCCOCCOCCOCCOCCOCCO[C@@H]1[C@@H](OP(=O)(O)O)[C@H](OP(=O)(O)O)[C@@H](OP(=O)(O)O)[C@@H](OP(=O)(O)O)[C@H]1OP(=O)(O)O (racemic) [OEG7-IP5, (±)-6-O-(methoxy-heptaethyleneglycol)-myo-inositol-1,2,3,4,5-pentakis(phosphate)] | 229.7 and 230.533 and 222.7 | 271.4 and 260.7 and 241.467 | 480.067 and 432.633 and 427.367 | 7.56 | 6.7 | 6.7 ± 0.9 (3) µM and 7.6 ± 1.0 (3) mg/L | 220.667 and 225.7 and 210.2 | 5.8 µM and 6.8 µM and 7.6 µM | 
4 | COCCOCCOCCOCCOCCOCCOCCOCCOCCOCCOCCO[C@@H]1[C@@H](OS(=O)(=O)O)[C@H](OP(=O)(O)O)[C@@H](OS(=O)(=O)O)[C@@H](OP(=O)(O)O)[C@H]1OS(=O)(=O)O (racemic) [OEG11-IP2S3, (±)-4-O-(methoxy-undecaethyleneglycol)-1,3,5-O-tris(sulfato)-myo-inositol-2,6-O-bis(phosphate)] | 217.567 and 236.467 and 212.467 | 261.167 and 253.1 and 226.6 | 303.9 and 300.967 and 303.767 and 294.6 | 22.87 | 18.6 | 18.6 ± 1.9 (5) µM and 22.9 ± 2.3 (5) mg/L | 256.3 | 16.2 µM and 19.4 µM and 17.1 µM and 19.2 µM and 20.9 µM | T50 (concentration 30 μM): 430.533 and 413.2 and 437.833 and 410.233; T50 (concentration 50 μM): 586.8 and 587.733 and 528.367
5 | COCCOCCOCCOCCOCCOCCOCCOCCOCCOCCOCCO[C@@H]1[C@@H](OP(=O)(O)O)[C@H](OP(=O)(O)O)[C@@H](OP(=O)(O)O)[C@@H](OP(=O)(O)O)[C@H]1OP(=O)(O)O (racemic) [OEG11-IP5, (±)-6-O-(methoxy-undecaethyleneglycol)-myo-inositol-1,2,3,4,5-pentakis(phosphate)] | 258.35 and 236.633 and 236.5 | 294.167 and 279.867 and 265.867 | 559.8 and 530.3 and 501.9 | 6.84 | 5.3 | 5.3 ± 0.7 (3) µM and 6.8 ± 0.9 (3) mg/L | 222.7 and 220.167 and 220.4 | 4.6 µM and 5.2 µM and 6.0 µM | 
6 | COCCOCCOCCOCCOCCOCCOCCOCCOCCOCCOCCOCCO[C@@H]1[C@@H](OP(=O)(O)O)[C@H](OP(=O)(O)O)[C@@H](OP(=O)(O)O)[C@@H](OP(=O)(O)O)[C@H]1OP(=O)(O)O (racemic) [OEG12-IP5, (±)-6-O-(methoxy-dodecaethyleneglycol)-myo-inositol-1,2,3,4,5-pentakis(phosphate)] |  |  |  | 6.58 | 4.9 | 4.9 ± 0.6 (5) µM and 6.6 ± 0.9 (5) mg/L |  | 6.0 µM and 4.6 µM and 4.9 µM and 4.4 µM | T50 (concentration 0.246 μM): 217.233 and 225.267; T50 (concentration 0.82 μM): 258.4 and 206.7 and 222.1 and 217.5 and 256.667; T50 (concentration 1.6 μM): 275.15 and 220.7; T50 (concentration 2.46 μM): 260.5 and 282.167; T50 (concentration 4.1 μM): 332.45 and 282.35 and 325.75 and 315.4 and 340; T50 (concentration 8.2 μM): 493.7 and 442.3 and 481.45 and 498.1 and 499.967
7 | COCCOCCO[C@H]1[C@@H](OP(=O)(O)O)[C@H](OP(=O)(O)O)[C@@H](OP(=O)(O)O)[C@H](OP(=O)(O)O)[C@H]1OP(=O)(O)O [2-mono-OEG2-IP5, (±)-2-O-(methoxy-diethyleneglycol)-myo-inositol-1,2,3,5,6-pentakis(phosphate)] |  |  |  |  |  | 8.8 ± 0.1 µM |  |  | Concentration at T50 = 350 min mean ± s.d. (n) (c350) (listed as (±)-2-O-(methoxy-diethyleneglycol)-myo-inositol-1,2,3,5,6-pentakis(phosphate)): 7.9 ± 0.1 mg/L; c350: 7.9 ± 0.1
8 | COCCOCCO[C@H]1[C@H](OP(=O)(O)O)[C@H](OCCOCCOC)[C@H](OP(=O)(O)O)[C@@H](OCCOCCOC)[C@@H]1OP(=O)(O)O [(OEG2)3-IP3, 2,4,6-Tri-O-(methoxy-diethyleneglycol)-myo-inositol-1,3,5-tris(phosphate)] | 250.8 and 223.6 and 227.933 | 288.867 and 266.233 and 265.7 | 440.6 and 395.433 and 411.533 | 5.43 | 7.1 | 7.1 ± 0.9 (3) µM and 5.4 ± 0.7 (3) mg/L |  | 6.1 µM and 7.7 µM and 7.4 µM | T50 (concentration 5 μM): 325.1 and 295.733 and 294.5
9 | COCCOCCOCCOCCOCCOCCOCCO[C@@H]1[C@@H](OP(=O)(O)O)[C@H](OCCOCCOCCOCCOCCOCCOCCOC)[C@@H](OP(=O)(O)O)[C@@H](OP(=O)(O)O)[C@H]1OP(=O)(O)O [(OEG7)2-IP4, 4,6-Di-O-(methoxy-heptaethyleneglycol)-myo-inositol-1,2,3,5-tetrakis(phosphate)] | 243.55 and 226.667 and 233.367 | 297.4 and 271.533 and 282.8 | 754.35 and 624.433 and 692.333 | 5.96 | 4.5 | 4.5 ± 0.4 (3) µM and 6.0 ± 0.6 (3) mg/L | 217.433 and 203.2 and 207.5 | 4.1 µM and 4.9 µM and 4.5 µM | 
10 | COCCOCCOCCOCCOCCOCCOCCO[C@H]1[C@H](OP(=O)(O)O)[C@H](OCCOCCOCCOCCOCCOCCOCCOC)[C@H](OP(=O)(O)O)[C@@H](OCCOCCOCCOCCOCCOCCOCCOC)[C@@H]1OP(=O)(O)O [(OEG7)3-IP3, 2,4,6-Tri-O-(methoxy-heptaethyleneglycol)-myo-inositol-1,3,5-tris(phosphate)] | 258.7 and 237.667 and 205.767 | 289.967 and 270.1 and 251.367 | 364.467 and 352.533 and 355.7 | 14.33 | 9.4 | 9.4 ± 0.6 (3) µM and 14.3 ± 1.0 (3) mg/L |  | 8.7 µM and 9.8 µM | T50 (concentration 5 μM): 303.667 and 291.2 and 260.633
